# Experimental data as given in EPA's ToxRefDB 2.
# Experiments:
# [1] = tested on: rat; conditions: Multigenerational reproductive toxicity study, sprague dawley, Oral, Feed, dose end: 2 generation
# [2] = tested on: rat; conditions: Prenatal developmental toxicity study, sprague dawley, Oral, Gavage/Intubation, dose end: 15 GD
# [3] = tested on: rat; conditions: Prenatal developmental toxicity study, sprague dawley, Injection, Intraperitoneal, dose end: 15 GD
# [4] = tested on: rat; conditions: Prenatal developmental toxicity study, long evans, Oral, Gavage/Intubation, dose end: 15 GD
# [5] = tested on: dog; conditions: Chronic toxicity, beagle, Oral, Feed, dose end: 104 week
# [6] = tested on: rabbit; conditions: Prenatal developmental toxicity study, new zealand white, Oral, Gavage/Intubation, dose end: 18 GD
# [7] = tested on: rat; conditions: Prenatal developmental toxicity study, sprague dawley, Oral, Gavage/Intubation, dose end: 15 GD; remark: listed apart in the source
# [8] = group: offspring, systemic / in life observation / body weight / offspring (pup) weight gain
# [9] = group: parental, systemic / in life observation / body weight / body weight + systemic / in life observation / body weight / body weight gain + systemic / in…
# [10] = group: reproductive, reproductive / reproductive performance / fertility / fertility + reproductive / reproductive performance / mating / mating
# [11] = group: developmental, developmental / developmental malformation / bone / ossification sites + developmental / developmental malformation / bone / unossified + …
# [12] = group: maternal, systemic / in life observation / body weight / body weight gain + systemic / in life observation / clinical signs / labored respiration + …
# [13] = group: developmental, systemic / in life observation / body weight / fetal weight
# [14] = group: maternal, systemic / in life observation / clinical signs / [other] + systemic / in life observation / clinical signs / altered breathing rate + …
# [15] = group: developmental, developmental / developmental malformation / placenta / size + systemic / in life observation / body weight / fetal weight
# [16] = group: maternal, systemic / in life observation / body weight / body weight gain
# [17] = group: cholinesterase, cholinesterase / cholinesterase / cholinesterase / plasma cholinesterase (che) + cholinesterase / cholinesterase / cholinesterase / brain …
# [18] = group: systemic, systemic / clinical chemistry / alkaline phosphatase (alp/alk) / alkaline phosphatase (alp/alk)
# [19] = group: cholinesterase, cholinesterase / cholinesterase / cholinesterase / brain (regional) cholinesterase (che) + cholinesterase / cholinesterase / cholinesterase…
# [20] = group: developmental, developmental / developmental malformation / bone / [other]
# [21] = group: maternal, systemic / in life observation / body weight / body weight + systemic / in life observation / body weight / body weight gain + systemic / in…
# [22] = group: developmental, developmental / developmental malformation / bone / delayed ossification + systemic / in life observation / body weight / fetal weight
# [23] = group: maternal, systemic / organ weight / liver / nos + reproductive / reproductive performance / resorptions / resorptions + systemic / in life observation…
smiles,measurement,setting,value
CC(C)(NC(=O)NCc1ccccc1Cl)c1ccccc1 [Cumyluron],LEL,[1]; [8],297 mg/kg/day
same,LOAEL,[1]; [8],297 mg/kg/day
same,NEL,[1]; [8],54 mg/kg/day
same,NOAEL,[1]; [8],54 mg/kg/day
same,LEL,[1]; [9],297 mg/kg/day
same,LOAEL,[1]; [9],297 mg/kg/day
same,NEL,[1]; [9],54 mg/kg/day
same,NOAEL,[1]; [9],54 mg/kg/day
same,LEL,[1]; [10],297 mg/kg/day
same,LOAEL,[1]; [10],297 mg/kg/day
same,NEL,[1]; [10],54 mg/kg/day
same,NOAEL,[1]; [10],54 mg/kg/day
"O=Cc1ccccc1C=O [1,2-Benzenedicarboxaldehyde]",LEL,[2]; [11],40 mg/kg/day
same,LOAEL,[2]; [11],40 mg/kg/day
same,NEL,[2]; [11],20 mg/kg/day
same,NOAEL,[2]; [11],20 mg/kg/day
same,LEL,[2]; [12],10 mg/kg/day
same,LOAEL,[2]; [12],10 mg/kg/day
same,NEL,[2]; [12],< 10 mg/kg/day
same,NOAEL,[2]; [12],< 10 mg/kg/day
CC(C)NCC(O)c1ccc(O)c(O)c1.Cl (centres undefined) [Isoproterenol hydrochloride],LEL,[3]; [13],20 mg/kg/day
same,LOAEL,[3]; [13],> 80 mg/kg/day
same,NEL,[3]; [13],< 20 mg/kg/day
same,NOAEL,[3]; [13],≥ 80 mg/kg/day
same,LEL,[3]; [14],20 mg/kg/day
same,LOAEL,[3]; [14],> 80 mg/kg/day
same,NEL,[3]; [14],< 20 mg/kg/day
same,NOAEL,[3]; [14],≥ 80 mg/kg/day
NC1CCCCC1 [Cyclohexylamine],LEL,[4]; [15],100 mg/kg/day
same,LOAEL,[4]; [15],> 100 mg/kg/day
same,NEL,[4]; [15],30 mg/kg/day
same,NOAEL,[4]; [15],≥ 100 mg/kg/day
same,LEL,[4]; [16],100 mg/kg/day
same,LOAEL,[4]; [16],> 100 mg/kg/day
same,NEL,[4]; [16],30 mg/kg/day
same,NOAEL,[4]; [16],≥ 100 mg/kg/day
CCOP(=S)(NC(C)C)Oc1ccccc1C(=O)OC(C)C (centres undefined) [Isofenphos],LOAEL,"[5]; group: cholinesterase, cholinesterase / cholinesterase / cholinesterase / plasma cholinesterase (che)",0.45 mg/kg/day
same,NEL,[5]; [17],0.09 mg/kg/day
same,NOAEL,[5]; [17],0.09 mg/kg/day
same,LEL,"[5]; group: cholinesterase, cholinesterase / cholinesterase / cholinesterase / plasma cholinesterase (che) + cholinesterase / cholinesterase / cholinesterase / …",0.45 mg/kg/day
same,LEL,[5]; [18],3.43 mg/kg/day
same,LOAEL,[5]; [18],> 3.43 mg/kg/day
same,NEL,[5]; [18],0.53 mg/kg/day
same,NOAEL,[5]; [18],≥ 3.43 mg/kg/day
same,LEL,[6]; [19],1.25 mg/kg/day
same,LOAEL,[6]; [19],1.25 mg/kg/day
same,NEL,[6]; [19],0.25 mg/kg/day
same,NOAEL,[6]; [19],0.25 mg/kg/day
same,LEL,[6]; [20],7.5 mg/kg/day
same,LOAEL,[6]; [20],> 7.5 mg/kg/day
same,NEL,[6]; [20],1.25 mg/kg/day
same,NOAEL,[6]; [20],≥ 7.5 mg/kg/day
same,LEL,[6]; [21],7.5 mg/kg/day
same,LOAEL,[6]; [21],7.5 mg/kg/day
same,NEL,[6]; [21],1.25 mg/kg/day
same,NOAEL,[6]; [21],1.25 mg/kg/day
CC1(C)OC(c2ccco2)CN1C(=O)C(Cl)Cl (centres undefined) [Furilazole],LEL,[7]; [22],175 mg/kg/day
same,LOAEL,[7]; [22],> 175 mg/kg/day
same,NEL,[7]; [22],75 mg/kg/day
same,NOAEL,[7]; [22],≥ 175 mg/kg/day
same,LOAEL,"[7]; group: maternal, systemic / organ weight / liver / nos",75 mg/kg/day
same,LEL,"[7]; group: maternal, systemic / organ weight / liver / nos + reproductive / reproductive performance / resorptions / resorptions",75 mg/kg/day
same,NEL,[7]; [23],10 mg/kg/day
same,NOAEL,[7]; [23],10 mg/kg/day
